From PubChem BioAssay (NCI)
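Dose response: 5 concentrations. Exposure: 48 h. Format: 96-well plates. Endpoint: linear interpolation; highest concentration if not reached. Here, GI50 denotes the concentration required for 50% inhibition of growth. TGI: concentration producing complete growth inhibition.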

Assays:
Assay in all cases: inhibition of tumour cell growth, NCI panel, 48 h
CCRF-CEM leukemia = tested on: CCRF-CEM leukemia
DU-145 prostate = tested on: DU-145 prostate
HCT-116 colon = tested on: HCT-116 colon
HOP-92 NSCLC = tested on: HOP-92 NSCLC
HS 578T breast = tested on: HS 578T breast
MCF7 breast = tested on: MCF7 breast
NCI-H460 lung = tested on: NCI-H460 lung
OVCAR-5 ovarian = tested on: OVCAR-5 ovarian
SK-MEL-2 melanoma = tested on: SK-MEL-2 melanoma
SNB-19 CNS = tested on: SNB-19 CNS

Structure (SMILES) | GI50 (CCRF-CEM leukemia) | TGI (CCRF-CEM leukemia) | GI50 (DU-145 prostate) | TGI (DU-145 prostate) | GI50 (HCT-116 colon) | TGI (HCT-116 colon) | GI50 (HOP-92 NSCLC) | TGI (HOP-92 NSCLC) | GI50 (HS 578T breast) | TGI (HS 578T breast) | GI50 (MCF7 breast) | TGI (MCF7 breast) | GI50 (NCI-H460 lung) | TGI (NCI-H460 lung) | GI50 (OVCAR-5 ovarian) | TGI (OVCAR-5 ovarian) | GI50 (SK-MEL-2 melanoma) | TGI (SK-MEL-2 melanoma) | GI50 (SNB-19 CNS) | TGI (SNB-19 CNS)
C/C(=N\NC(=O)c1ccncc1)c1ccccc1O | 742 nM | > 100 µM | 4.85 µM | > 100 µM | 2.32 µM | > 100 µM | 2270 nM | > 100 µM | 26.7 µM | > 100 µM | 3720 nM | > 100 µM | 683 nM | > 100 µM | 4.87 µM | > 100 µM | > 100 µM | > 100 µM | 8.23 µM | > 100 µM
Cc1cccc(Cc2cnc(NC(=O)CCCOc3ccc(Cl)cc3)s2)c1 | 3680 nM | > 100 µM | 3.91 µM | > 100 µM | 3.36 µM | > 100 µM | 34300 nM | > 100 µM | 5.32 µM | > 100 µM | 3160 nM | > 100 µM | 3320 nM | > 100 µM | 5.88 µM | > 100 µM | > 100 µM | > 100 µM | > 100 µM | > 100 µM
COC(=O)C(NC(=O)c1ccccc1)c1ccc(OC)c(I)c1 (configuration not stated) | 53800 nM | > 100 µM | > 100 µM | > 100 µM | 33.7 µM | > 100 µM | 58600 nM | > 100 µM | 77.1 µM | > 100 µM | 39500 nM | > 100 µM | 67600 nM | > 100 µM | > 100 µM | > 100 µM | > 100 µM | > 100 µM | > 100 µM | > 100 µM
CC(=O)OC1CCC2(C)C(=CCC3C4CC(CN5CC5)C(=O)C4(C)CCC32)C1 (configuration not stated) | 2790 nM | 11.4 µM | 8.29 µM | 20.4 µM | 3.44 µM | 10.1 µM | 11300 nM | 24.1 µM | 20.4 µM | 65.8 µM | 670 nM | 2.68 µM | 12200 nM | 29.5 µM | 17.3 µM | 33.2 µM | 14 µM | 28.2 µM | 14.1 µM | 29.5 µM
O=C(/C=C/N1CCN(c2cccc(Cl)c2)CC1)c1ccc(Cl)cc1 | 22600 nM | 66.7 µM | 38.4 µM | > 100 µM | 27.1 µM | 70.4 µM | 15100 nM | 57.7 µM | 26.9 µM | 69.6 µM | 29700 nM | > 100 µM | 33600 nM | > 100 µM | 49.7 µM | > 100 µM | 35.3 µM | > 100 µM | 64.9 µM | > 100 µM
COc1cc(-c2nn(-c3cccc(NC(=O)c4cccc(C(F)(F)F)c4)c3)cc2-c2ccncc2)ccc1Cl | 1450 nM | > 50 µM | 1.76 µM | 32.1 µM | 1.67 µM | > 50 µM | 554 nM | 3.12 µM | 1.07 µM | > 50 µM | 1430 nM | > 50 µM | 1450 nM | 9.27 µM | 4.01 µM | > 50 µM | 1.56 µM | > 50 µM | 2.46 µM | > 50 µM
CCn1c(SC)nnc1-c1cc2c([nH]c3ccccc32)c(-c2cccc(O)c2)n1 | 1570 nM | > 100 µM | 4.46 µM | 24.9 µM | 2.5 µM | 14 µM | 1100 nM | 9.08 µM | 1.97 µM | 9.76 µM | 995 nM | 25.2 µM | 1600 nM | 16.6 µM | 10 µM | 43.1 µM | 1.88 µM | 7.6 µM | 4.16 µM | 47 µM
O=C(COC(=O)[C@H](C[Se][Se]C[C@H](NC(=O)c1ccc(Br)cc1F)C(=O)OCC(=O)c1ccc(F)cc1)NC(=O)c1ccc(Br)cc1F)c1ccc(F)cc1 | – | – | 0.385 µM | 1.08 µM | 1.02 µM | 3.52 µM | 2730 nM | 6.66 µM | 0.298 µM | 1.31 µM | 984 nM | 3.06 µM | 345 nM | 1.27 µM | 0.951 µM | 2.72 µM | 1.66 µM | 4.74 µM | 0.444 µM | 1.63 µM
COc1cc(COC(=O)NC(Cc2cccs2)C(=O)O)c([N+](=O)[O-])cc1OC (configuration not stated) | – | > 100 µM | – | > 100 µM | – | > 100 µM | – | > 100 µM | – | > 100 µM | – | > 100 µM | – | > 100 µM | – | > 100 µM | – | – | – | > 100 µM
CN(C)C(=O)c1cc2cnc(Nc3ccc(N4CCNCC4)cn3)nc2n1C1CCCC1 | 2920 nM | > 100 µM | 23.5 µM | > 100 µM | 4.25 µM | 48.7 µM | 867 nM | 61.6 µM | 13.8 µM | 53.5 µM | 592 nM | 37.2 µM | 11300 nM | 43.8 µM | 1.45 µM | 73.1 µM | 12.2 µM | 30.1 µM | 14.2 µM | > 100 µM
O=C1C(=O)c2c(ccc3ccccc23)-c2ccccc21 | 2170 nM | > 100 µM | 1.4 µM | 2.73 µM | 0.384 µM | 2.87 µM | 1910 nM | 5.52 µM | 2.05 µM | 6 µM | 1530 nM | 3.48 µM | 1600 nM | 3.08 µM | 2.54 µM | 7.45 µM | 1.73 µM | 3.78 µM | 2.43 µM | 7.97 µM
CC(C)(CCc1nc2ccccc2[nH]1)C(=O)O | – | > 100 µM | – | > 100 µM | – | > 100 µM | – | > 100 µM | – | > 100 µM | – | > 100 µM | – | > 100 µM | – | > 100 µM | – | > 100 µM | – | > 100 µM
CCc1c[nH]c2ncnc(N3CC[C@](N)(CNC(=O)c4ccc(F)cc4F)C3)c12 | 2720 nM | > 91.2 µM | 18.3 µM | > 100 µM | 8.91 µM | > 100 µM | 230 nM | 7.57 µM | 0.513 µM | 24.3 µM | 716 nM | > 100 µM | 1780 nM | > 100 µM | 21.7 µM | > 100 µM | 28 µM | > 100 µM | 2.04 µM | > 100 µM
